What was measured:
caspase 14 = molecular target: T1, caspase 14 (Homo sapiens, UniProt P31944); test: commercial panel of caspases (Reaction Biology Corporation), caspase 14; format: biochemical; conditions: read-out: IC50 versus caspase 14
T1 construct: purchased Reaction Biology Corporation
T1 sequence (P31944 6-146 limits assumed): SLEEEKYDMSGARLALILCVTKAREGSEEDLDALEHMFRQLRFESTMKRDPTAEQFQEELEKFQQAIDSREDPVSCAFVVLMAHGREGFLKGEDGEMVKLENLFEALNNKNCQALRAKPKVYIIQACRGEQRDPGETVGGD
T1 sequence (P31944 153-242 limits assumed): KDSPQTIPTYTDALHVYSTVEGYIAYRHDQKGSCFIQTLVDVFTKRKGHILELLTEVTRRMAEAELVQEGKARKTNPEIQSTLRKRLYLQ
Source text: (§1) Having established that the compounds (3), (4) and (16) are potent inhibitors of caspase 1, the selectivity of these agents was examined. […] Wannamaker, W.; Davies, R.; Namchuk, M.; Pollard, J.; Ford, P.; Ku, G.; Decker, C.; Charifson, P.; Weber, P.; Germann, U. A.; Kuida, K.; Randle, J. C. R. J. Pharmacol. Exp. Ther. 2007, 321, 509-516. […] VRT-043198 (2b), NCGC00185682 (3), NCGC00183434 (4) and NCGC00183681 (16) were entered within a commercial panel of caspases offered by Reaction Biology Corporation. […] A particularly interesting aspect of these molecules was the high selectivity for caspase 1. […] All other activities were about the 1 μM threshold.

[1] = plasma protein binding, human; format: in vitro ADME; conditions: relative to VX-765 (1) and NCGC00185682 (3)
Experimental: (§2) Given the aqueous stability of these new agents, selected ADME properties for chosen compounds were also examined. VX-765 (1), VRT-043198 (2b), NCGC00185682 (3), NCGC00183434 (4) and NCGC00183681 (16) were evaluated for a profile of bi-directional Caco-2 permeability, plasma protein binding (both human and rat) and microsomal stability (both human and rat) studies (FIG. 9, Table 2). […] The clearance rates (Clint) and t ½ for VRT-043198 (2b), NCGC00185682 (3), NCGC00183434 (4) and NCGC00183681 (16) were all moderate.

[2] = microsomal stability (both human and rat); format: in vitro ADME; conditions: for clearance rates (Clint) / t ½: species not given
Experimental: as §2

[3] = aqueous degradation study by LCMS over 96 hours; format: physicochemical; conditions: for aqueous stability in acidic conditions (pH 2): pH 2, LCMS; for aqueous stability in acidic conditions (pH 2) / aqueous stability in neutral conditions (water, pH 7) / aqueous stability in basic conditions (pH 8): over 96 hours; for aqueous stability in neutral conditions (water, pH 7): pH 7, LCMS; for aqueous stability in basic conditions (pH 8): pH 8, LCMS
Experimental: In order to evaluate the agent's stability profile, VX-765 (1), VRT-043198 (2b), NCGC00185682 (3), NCGC00183434 (4) and NCGC00183681 (16) were examined within an aqueous degradation study at neutral (pH 7) acidic (pH 2) and basic (pH 8) conditions. The study was conducted by monitoring the degradation of each agent by LCMS analysis at various time points over 96 hours (FIG. 8). […] This degradation was amplified in both basic and acidic conditions. Conversely, the active agent VRT-043198 (2b) was very stable in both water and acidic conditions and its degradation at pH 8 was moderate.

caspase 1 [4] = molecular target: T2, caspase 1 (Homo sapiens, UniProt P29466); test: commercial panel of caspases (Reaction Biology Corporation), caspase 1; format: biochemical; conditions: read-out: IC50 versus caspase 1
T2 sequence (P29466 120-297 limits assumed): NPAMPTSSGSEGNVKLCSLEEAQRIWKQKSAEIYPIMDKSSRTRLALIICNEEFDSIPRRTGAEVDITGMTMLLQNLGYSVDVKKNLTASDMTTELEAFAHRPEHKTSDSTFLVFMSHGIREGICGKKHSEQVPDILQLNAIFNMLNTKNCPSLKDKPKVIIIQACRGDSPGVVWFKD
T2 sequence (P29466 317-404 limits assumed): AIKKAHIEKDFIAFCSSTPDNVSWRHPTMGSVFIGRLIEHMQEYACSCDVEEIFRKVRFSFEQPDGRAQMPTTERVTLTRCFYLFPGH
Source text: as §1

[5] = plasma protein binding, rat; format: in vitro ADME; conditions: relative to VX-765 (1) and NCGC00185682 (3)
Experimental: as §2

caspase 1 [6] = molecular target: T2, caspase 1; test: caspase 1 inhibition assay with caged fluorescent peptide substrate (Ac-LEHD-AMC); format: biochemical; conditions: 2 nM enzyme, 20 minutes at room temperature, fluorescence detection, read-out: IC50 versus caspase 1
Experimental: Each agent's inhibitory capacity versus caspase 1 was evaluated. A well established protocol was utilized whereby caspase 1 activity is measured utilizing 2 nM enzyme in the presence and absence of compound and a caged fluorescent peptide substrate (Ac-LEHD-AMC). Wannamaker et al, Journal of Pharmacology and Experimental Therapeutics, 2007, 321, 509-516. The compounds were examined across a titration series (0.325 nM→57.5 μM) and data was recorded via fluorescence detection following an incubation period of 20 minutes at room temperature.

caspase 9 [7] = molecular target: T3, caspase 9 (Homo sapiens, UniProt P55211); test: commercial panel of caspases (Reaction Biology Corporation), caspase 9; format: biochemical; conditions: read-out: IC50 versus caspase 9
T3 construct: purchased Reaction Biology Corporation
T3 sequence (P55211 1-315 limits assumed): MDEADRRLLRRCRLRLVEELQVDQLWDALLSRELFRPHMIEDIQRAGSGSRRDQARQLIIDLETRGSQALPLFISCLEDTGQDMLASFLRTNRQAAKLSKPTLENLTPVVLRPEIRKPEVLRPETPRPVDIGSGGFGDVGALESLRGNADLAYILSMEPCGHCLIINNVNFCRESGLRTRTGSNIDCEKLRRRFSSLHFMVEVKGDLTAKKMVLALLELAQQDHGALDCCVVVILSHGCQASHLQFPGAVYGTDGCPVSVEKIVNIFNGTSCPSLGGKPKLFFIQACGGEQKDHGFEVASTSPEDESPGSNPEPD
T3 sequence (P55211 331-416 limits assumed): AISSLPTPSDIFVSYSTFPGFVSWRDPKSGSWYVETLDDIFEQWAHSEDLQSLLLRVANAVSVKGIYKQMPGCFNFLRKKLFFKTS
Source text: as §1

Pgp = molecular target: T4, Pgp (Homo sapiens, UniProt P08183); test: Caco-2 control experiment with verapamil (Pgp efflux); format: in vitro ADME
T4 construct: endogenous in cells; host or cells: Caco-2
T4 sequence (P08183 whole entry): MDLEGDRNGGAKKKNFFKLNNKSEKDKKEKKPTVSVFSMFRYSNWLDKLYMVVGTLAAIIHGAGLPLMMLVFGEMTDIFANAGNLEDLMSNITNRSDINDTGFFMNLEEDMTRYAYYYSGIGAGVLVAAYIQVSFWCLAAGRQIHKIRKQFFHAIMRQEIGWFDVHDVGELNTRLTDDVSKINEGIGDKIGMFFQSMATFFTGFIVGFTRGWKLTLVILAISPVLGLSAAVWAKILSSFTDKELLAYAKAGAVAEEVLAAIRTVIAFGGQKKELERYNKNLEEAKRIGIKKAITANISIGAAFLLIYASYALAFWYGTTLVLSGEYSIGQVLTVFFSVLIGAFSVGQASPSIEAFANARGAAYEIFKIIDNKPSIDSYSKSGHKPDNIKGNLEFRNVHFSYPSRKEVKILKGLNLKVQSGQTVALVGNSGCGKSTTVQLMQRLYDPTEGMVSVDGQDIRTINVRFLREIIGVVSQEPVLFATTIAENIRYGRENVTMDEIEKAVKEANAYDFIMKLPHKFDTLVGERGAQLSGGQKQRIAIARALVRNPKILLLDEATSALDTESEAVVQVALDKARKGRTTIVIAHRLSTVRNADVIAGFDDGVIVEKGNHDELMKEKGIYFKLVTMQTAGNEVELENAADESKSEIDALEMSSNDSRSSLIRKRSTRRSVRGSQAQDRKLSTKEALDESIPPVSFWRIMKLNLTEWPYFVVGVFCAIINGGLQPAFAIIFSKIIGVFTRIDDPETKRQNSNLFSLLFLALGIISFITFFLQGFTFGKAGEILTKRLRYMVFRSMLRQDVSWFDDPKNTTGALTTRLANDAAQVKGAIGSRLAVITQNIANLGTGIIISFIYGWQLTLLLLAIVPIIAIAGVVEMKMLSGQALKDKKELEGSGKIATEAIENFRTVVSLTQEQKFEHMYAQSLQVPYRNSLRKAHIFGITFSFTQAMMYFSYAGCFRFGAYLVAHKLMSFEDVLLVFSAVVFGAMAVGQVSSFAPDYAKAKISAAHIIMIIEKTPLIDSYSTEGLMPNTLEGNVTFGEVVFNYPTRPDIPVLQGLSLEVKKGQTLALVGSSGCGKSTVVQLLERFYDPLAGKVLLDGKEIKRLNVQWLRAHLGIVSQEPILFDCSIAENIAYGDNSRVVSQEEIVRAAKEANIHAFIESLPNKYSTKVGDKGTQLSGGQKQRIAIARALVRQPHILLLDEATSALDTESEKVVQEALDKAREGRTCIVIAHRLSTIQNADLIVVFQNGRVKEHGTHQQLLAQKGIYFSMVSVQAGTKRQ
Experimental: as §2

Caco-2 = test: bi-directional Caco-2 permeability; format: in vitro ADME
Experimental: as §2

caspase 1 [8] = molecular target: T2, caspase 1; conditions: reported by Randle and coworkers (Wannamaker et al. 2007); read-out: Ki versus caspase 1; cited from earlier work
caspase 8 [9] = molecular target: T5, caspase 8 (Homo sapiens, UniProt Q14790); test: commercial panel of caspases (Reaction Biology Corporation), caspase 8; format: biochemical; conditions: read-out: IC50 versus caspase 8
T5 sequence (Q14790 217-374 limits assumed): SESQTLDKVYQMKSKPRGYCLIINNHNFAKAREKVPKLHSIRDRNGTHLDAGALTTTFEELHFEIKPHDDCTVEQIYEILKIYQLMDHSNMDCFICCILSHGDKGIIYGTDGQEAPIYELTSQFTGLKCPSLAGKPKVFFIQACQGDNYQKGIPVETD
T5 sequence (Q14790 385-479 limits assumed): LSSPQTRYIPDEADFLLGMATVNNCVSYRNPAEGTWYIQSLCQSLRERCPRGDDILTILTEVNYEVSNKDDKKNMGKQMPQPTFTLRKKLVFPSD
Source text: as §1

caspase 9 [10] = molecular target: T3, caspase 9; conditions: reported by Randle and coworkers (Wannamaker et al. 2007); read-out: Ki versus caspase 9; cited from earlier work
caspase 6 [11] = molecular target: T6, caspase 6 (Homo sapiens, UniProt P55212); test: commercial panel of caspases (Reaction Biology Corporation), caspase 6; format: biochemical; conditions: read-out: IC50 versus caspase 6
T6 sequence (P55212 24-179 limits assumed): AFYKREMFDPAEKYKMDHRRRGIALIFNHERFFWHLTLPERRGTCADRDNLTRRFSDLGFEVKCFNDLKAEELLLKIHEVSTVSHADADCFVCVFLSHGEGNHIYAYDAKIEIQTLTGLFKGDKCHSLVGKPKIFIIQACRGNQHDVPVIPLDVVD
T6 sequence (P55212 194-293 limits assumed): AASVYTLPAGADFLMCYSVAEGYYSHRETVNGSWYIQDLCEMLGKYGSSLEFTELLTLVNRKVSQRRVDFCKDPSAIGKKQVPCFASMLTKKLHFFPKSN
Source text: as §1

caspase 4 [12] = molecular target: T7, caspase 4 (Homo sapiens, UniProt P49662); conditions: reported by Randle and coworkers (Wannamaker et al. 2007); read-out: Ki versus caspase 4; cited from earlier work
T7 construct: purchased Reaction Biology Corporation
T7 sequence (P49662 81-270 limits assumed): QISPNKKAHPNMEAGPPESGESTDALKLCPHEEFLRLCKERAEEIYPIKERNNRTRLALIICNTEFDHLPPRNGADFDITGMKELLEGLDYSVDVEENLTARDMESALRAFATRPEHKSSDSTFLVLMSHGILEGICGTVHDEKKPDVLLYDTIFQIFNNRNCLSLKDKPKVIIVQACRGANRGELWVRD
T7 sequence (P49662 290-377 limits assumed): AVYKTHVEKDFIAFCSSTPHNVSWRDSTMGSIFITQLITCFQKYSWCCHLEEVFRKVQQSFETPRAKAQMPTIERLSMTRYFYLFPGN

caspase 4 [13] = molecular target: T7, caspase 4; test: commercial panel of caspases (Reaction Biology Corporation), caspase 4; format: biochemical; conditions: read-out: IC50 versus caspase 4
Source text: as §1

[14] = system: caspases 3, 7, granzyme B, cathepsin B and tyrpsin; conditions: reported by Randle and coworkers; cited from earlier work
caspase 6 [15] = molecular target: T6, caspase 6; conditions: reported by Randle and coworkers (Wannamaker et al. 2007); read-out: Ki versus caspase 6; cited from earlier work
caspase 8 [16] = molecular target: T5, caspase 8; conditions: reported by Randle and coworkers (Wannamaker et al. 2007); read-out: Ki versus caspase 8; cited from earlier work

Compound	free fraction in protein binding assay [1]	clearance rates (Clint) ([2]; liver microsomes)	t ½ ([2]; liver microsomes)	aqueous stability in acidic conditions (pH 2) [3]	aqueous stability in neutral conditions (water, pH 7) [3]	aqueous stability in basic conditions (pH 8) [3]	IC50 (caspase 1 [4])	free fraction in protein binding assay [5]	IC50 (caspase 1 [6])	Pgp efflux substrate (Pgp)	Caco-2 A to B permeability (Caco-2)	Caco-2 B to A levels (Caco-2)	IC50 (caspase 14)	IC50 (caspase 9 [7])	also measured
CC(C)(C)C(NC(=O)c1ccc(N)c(Cl)c1)C(=O)N1CCCC1C(=O)NC(C#N)CC(=O)O (stereo not shown) [NCGC00183434 (4)]	significantly higher	moderate	moderate	moderate to good	moderate to good	exceedingly stable	0.023 nM	significantly higher	0.316 nM	–	–	–	801 nM	–	degradation in acidic conditions ([3]; acidic (pH 2), after 72 hours): 50%; degradation in neutral conditions ([3]; neutral (pH 7), after 72 hours): 50%; persistence in aqueous conditions ([3]; suggested from the degradation data): > 24 h
CC(C)(C)C(NC(=O)c1ccc(N)c(Cl)c1)C(=O)N1CCCC1C(=O)NC(C#N)Cc1nnn[nH]1 (stereo not shown) [NCGC00183681 (16)]	significantly higher	moderate	moderate	resistant to degradation	resistant to degradation	resistant to degradation	2.58 nM	significantly higher	20.4 nM	–	–	–	–	91.5 nM	–
CC(C)(C)[C@H](NC(=O)c1ccc(N)c(Cl)c1)C(=O)N1CCC[C@H]1C(=O)N[C@H](C=O)CC(=O)O [VRT-043198 (2b), reference compound]	significantly higher	moderate	moderate	very stable	very stable	moderate	0.204 nM	significantly higher	11.5 nM	–	–	–	58.5 nM	5.07 nM	Ki (caspase 1 [8]): < 1 nM; IC50 (caspase 8 [9]): 3.3 nM; Ki (caspase 9 [10]): 1030 nM; IC50 (caspase 6 [11]): > 10 µM; Ki (caspase 4 [12]): < 1 nM; IC50 (caspase 4 [13]): 14.5 nM; activity versus the remaining targets [14]: little activity; Ki (caspase 6 [15]): 560 nM; Ki (caspase 8 [16]): 100 nM

More lines, main results first:

free fraction in protein binding assay [1]	clearance rates (Clint) ([2]; liver microsomes)	t ½ ([2]; liver microsomes)	aqueous stability in acidic conditions (pH 2) [3]	aqueous stability in neutral conditions (water, pH 7) [3]	aqueous stability in basic conditions (pH 8) [3]	IC50 (caspase 1 [4])	free fraction in protein binding assay [5]	IC50 (caspase 1 [6])	Pgp efflux substrate (Pgp)	Caco-2 A to B permeability (Caco-2)	Caco-2 B to A levels (Caco-2)	Compound	IC50 (caspase 14)	IC50 (caspase 9 [7])	also measured
–	moderate	moderate	exceptionally stable	exceptionally stable	–	43.4 nM	–	145 nM	substrates for Pgp efflux	moderately better levels	high	CCOC(=O)CC(C#N)NC(=O)C1CCCN1C(=O)C(NC(=O)c1ccc(N)c(Cl)c1)C(C)(C)C (stereo not shown) [NCGC00185682 (3)]	–	–	degradation in liver microsomes without NADPH ([2]; without NADPH as a cofactor): slight degree of degradation; degradation in basic conditions ([3]; basic (pH 8), after 22 hours): fully degraded
–	–	–	amplified	moderate degradation	amplified	–	–	–	substrates for Pgp efflux	moderately better levels	high	CCO[C@@H]1OC(=O)C[C@@H]1NC(=O)[C@@H]1CCCN1C(=O)[C@@H](NC(=O)c1ccc(N)c(Cl)c1)C(C)(C)C [VX-765 (1), reference compound]	–	–	metabolism by liver microsomes ([2]; liver microsomes): minimal ability to be metabolized; half-life ([2]; liver microsomes, read-out: t ½): > 6.53 days; degradation at pH 2 ([3]; pH 2, after 3.5 hours): 40%; compound decomposed in water ([3]; water (pH 7), after 48 hours): over 50%

Source: patent US9365612B2, “Caspase inhibitors” (United States of America as represented by the Secretary, …, priority 2010, dated 2016)
